{"source": "patent US20200140483A1", "about": "“USE OF Y PEPTIDE IN PREPARATION OF DRUG OR HEALTHCARE PRODUCT FOR LOWERING BLOOD PRESSURE” (priority 2017, published 2020)", "tested_on": "SHR rats", "format": "in vivo, rat", "protocol": "Each group was intragastrically administrated a solution of a corresponding tested substance or ultrapure water, in a volume of 10 mL/kg body weight, once per day for 30 consecutive days. The blood pressure and heart rates of the animals were measured during the administration of the tested substance. The blood pressure was measured with an LE5002 noninvasive blood pressure meter.", "note": "Residues, ends and D or L forms follow the SMILES beside them."}
{"smiles": "N[C@@H](Cc1ccc(O)cc1)C(=O)N[C@@H](Cc1ccc(O)cc1)C(=O)O", "note": "[YY-peptide] (H-Tyr-Tyr-OH; N-terminus and C-terminus assumed)", "values": [{"measurement": "blood pressure", "setting": "SHR rats, 10 mg/kg intragastric once per day, 7th day, model control 161±6", "value": "157±7"}, {"measurement": "effect in lowering blood pressure", "setting": "SHR rats, 10 mg/kg, 7th day", "value": "significant effect in lowering blood pressure"}, {"measurement": "effect on body weight", "setting": "rat, in vivo, 10 mg/kg", "value": "no obvious effect"}, {"measurement": "effect on heart rates", "setting": "rat, in vivo, 10 mg/kg", "value": "no obvious effect"}]}
